# From ChEMBL document CHEMBL5724914, “Linking interpersonal differences in gut microbiota composition and drug biotransformation activity” (2024)
# Key:
# [1] = (§1) The drug is tested on Z-028 corresponding to mouse gut metagenome with ENA study accession number: PRJEB37062 and ENA sample accession number: ERS12561827 for biotransformation under anaerobic condition. The drug concentrations were measured over 9 timepoints collected between 0 and 24 hours of incubation by liquid-chromatography-coupled mass spectrometry (LC–MS); conditions: 2 µM
# [2] = as §1, with “Z-022” for “Z-028”, “ERS12561821” for “ERS12561827”; conditions: 2 µM
# [3] = as §1, with “Z-018” for “Z-028”, “pig” for “mouse”, “ERS12561817” for “ERS12561827”; conditions: 2 µM
# [4] = as §1, with “Z-011” for “Z-028”, “ERS12561811” for “ERS12561827”; conditions: 2 µM
# [5] = as §1, with “Z-007” for “Z-028”, “rat” for “mouse”, “ERS12561807” for “ERS12561827”; conditions: 2 µM
# [6] = as §1, with “Z-004” for “Z-028”, “to” for “to mouse gut”, “ERS12561804” for “ERS12561827”; conditions: 2 µM
# [7] = as §1, with “Z-003” for “Z-028”, “pig” for “mouse”, “ERS12561803” for “ERS12561827”; conditions: 2 µM
# [8] = as §1, with “WLS-220” for “Z-028”, “human” for “mouse”, “ERS12561769” for “ERS12561827”; conditions: 2 µM
# [9] = as §1, with “WLS-170” for “Z-028”, “human” for “mouse”, “ERS12561762” for “ERS12561827”; conditions: 2 µM
# [10] = as §1, with “WLS-086” for “Z-028”, “human” for “mouse”, “ERS12561752” for “ERS12561827”; conditions: 2 µM
# [11] = as §1, with “WLS-069” for “Z-028”, “human” for “mouse”, “ERS12561748” for “ERS12561827”; conditions: 2 µM
# [12] = as §1, with “WLS-027” for “Z-028”, “human” for “mouse”, “ERS12561744” for “ERS12561827”; conditions: 2 µM
# [13] = human gut metagenome, 24 h, 2 µM
# [14] = human gut metagenome, 24 h, 2 µM; remark: listed apart in the source
# [15] = human gut metagenome, 24 h, 2 µM; remark: listed apart in the source
# [16] = human gut metagenome, 24 h, 2 µM; remark: listed apart in the source
# [17] = human gut metagenome, 24 h, 2 µM; remark: listed apart in the source
# [18] = human gut metagenome, 24 h, 2 µM; remark: listed apart in the source
# [19] = human gut metagenome, 24 h, 2 µM; remark: listed apart in the source
# [20] = human gut metagenome, 24 h, 2 µM; remark: listed apart in the source
# Also: call rule not given here.
Bacterial Biotransformation [1],Bacterial Biotransformation [2],Bacterial Biotransformation [3],Bacterial Biotransformation [4],Bacterial Biotransformation [5],Bacterial Biotransformation [6],Bacterial Biotransformation [7],Bacterial Biotransformation [8],Bacterial Biotransformation [9],Bacterial Biotransformation [10],Bacterial Biotransformation [11],Bacterial Biotransformation [12],Bacterial Biotransformation [13],Bacterial Biotransformation [14],Bacterial Biotransformation [15],Bacterial Biotransformation [16],Bacterial Biotransformation [17],Bacterial Biotransformation [18],Bacterial Biotransformation [19],Bacterial Biotransformation [20],Compound
Compound metabolized,Compound metabolized,Compound metabolized,Compound metabolized,Compound metabolized,Compound metabolized,Compound metabolized,Compound metabolized,Compound metabolized,Compound metabolized,Compound metabolized,Compound metabolized,Compound metabolized,Compound metabolized,Compound NOT metabolized,Compound metabolized,Compound metabolized,Compound metabolized,Compound metabolized,Compound metabolized,CCCc1nc2c(C)cc(-c3nc4ccccc4n3C)cc2n1Cc1ccc(-c2ccccc2C(=O)O)cc1
Compound NOT metabolized,Compound NOT metabolized,Compound NOT metabolized,Compound NOT metabolized,Compound NOT metabolized,Compound NOT metabolized,Compound NOT metabolized,Compound NOT metabolized,Compound metabolized,Compound metabolized,Compound metabolized,Compound metabolized,Compound metabolized,Compound metabolized,Compound NOT metabolized,Compound metabolized,Compound NOT metabolized,Compound metabolized,Compound NOT metabolized,Compound metabolized,CCCCC(=O)N(Cc1ccc(-c2ccccc2-c2nnn[nH]2)cc1)[C@H](C(=O)O)C(C)C
Compound NOT metabolized,Compound metabolized,Compound metabolized,Compound NOT metabolized,Compound NOT metabolized,Compound metabolized,Compound metabolized,Compound metabolized,Compound metabolized,Compound metabolized,Compound metabolized,Compound metabolized,Compound metabolized,Compound metabolized,Compound metabolized,Compound metabolized,Compound NOT metabolized,Compound metabolized,Compound NOT metabolized,Compound metabolized,CN1CC(=O)N2[C@H](c3ccc4c(c3)OCO4)c3[nH]c4ccccc4c3C[C@@H]2C1=O

# Continued, molecule first:
Compound,Bacterial Biotransformation [1],Bacterial Biotransformation [2],Bacterial Biotransformation [3],Bacterial Biotransformation [4],Bacterial Biotransformation [5],Bacterial Biotransformation [6],Bacterial Biotransformation [7],Bacterial Biotransformation [8],Bacterial Biotransformation [9],Bacterial Biotransformation [10],Bacterial Biotransformation [11],Bacterial Biotransformation [12],Bacterial Biotransformation [13],Bacterial Biotransformation [14],Bacterial Biotransformation [15],Bacterial Biotransformation [16],Bacterial Biotransformation [17],Bacterial Biotransformation [18],Bacterial Biotransformation [19],Bacterial Biotransformation [20]
Cc1cc2c(cc1S(N)(=O)=O)S(=O)(=O)CCC2,Compound NOT metabolized,Compound NOT metabolized,Compound NOT metabolized,Compound NOT metabolized,Compound NOT metabolized,Compound NOT metabolized,Compound NOT metabolized,Compound NOT metabolized,Compound NOT metabolized,Compound NOT metabolized,Compound NOT metabolized,Compound NOT metabolized,Compound NOT metabolized,Compound NOT metabolized,Compound NOT metabolized,Compound NOT metabolized,Compound NOT metabolized,Compound NOT metabolized,Compound NOT metabolized,Compound NOT metabolized
CN1CCc2c(c3ccccc3n2Cc2ccccc2)C1.CN1CCc2c(c3ccccc3n2Cc2ccccc2)C1.O=S(=O)(O)c1cccc2c(S(=O)(=O)O)cccc12,Compound NOT metabolized,Compound NOT metabolized,Compound NOT metabolized,Compound NOT metabolized,Compound NOT metabolized,Compound NOT metabolized,Compound NOT metabolized,Compound metabolized,Compound metabolized,Compound NOT metabolized,Compound NOT metabolized,Compound metabolized,Compound NOT metabolized,Compound NOT metabolized,Compound NOT metabolized,Compound NOT metabolized,Compound NOT metabolized,Compound metabolized,Compound NOT metabolized,Compound NOT metabolized
COc1cc2nc(N(C)CCCNC(=O)C3CCCO3)nc(N)c2cc1OC (stereo not given) [ALFUZOSIN],Compound NOT metabolized,Compound metabolized,Compound metabolized,Compound metabolized,Compound NOT metabolized,Compound NOT metabolized,Compound metabolized,Compound metabolized,Compound metabolized,Compound metabolized,Compound metabolized,Compound NOT metabolized,Compound metabolized,Compound NOT metabolized,Compound NOT metabolized,Compound metabolized,Compound metabolized,Compound metabolized,Compound NOT metabolized,Compound metabolized
NC12CC3CC(CC(C3)C1)C2 [AMANTADINE],Compound NOT metabolized,Compound metabolized,Compound NOT metabolized,Compound NOT metabolized,Compound NOT metabolized,Compound NOT metabolized,Compound NOT metabolized,Compound NOT metabolized,Compound metabolized,Compound NOT metabolized,Compound NOT metabolized,Compound NOT metabolized,Compound NOT metabolized,Compound NOT metabolized,Compound NOT metabolized,Compound NOT metabolized,Compound NOT metabolized,Compound NOT metabolized,Compound NOT metabolized,Compound NOT metabolized
CC(C)(C#N)c1cc(Cn2cncn2)cc(C(C)(C)C#N)c1 [ANASTROZOLE],Compound NOT metabolized,Compound metabolized,Compound NOT metabolized,Compound NOT metabolized,Compound NOT metabolized,Compound NOT metabolized,Compound metabolized,Compound metabolized,Compound metabolized,Compound NOT metabolized,Compound metabolized,Compound NOT metabolized,Compound NOT metabolized,Compound NOT metabolized,Compound NOT metabolized,Compound NOT metabolized,Compound NOT metabolized,Compound metabolized,Compound NOT metabolized,Compound NOT metabolized
